{
  "source": "PubChem BioAssay (NCI)",
  "note": "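Growth conditions: 96-well plates. Treatment: test compound, 48 hours, 5 concentrations. Analysis: linear interpolation between bracketing concentrations; unreached endpoints set to highest concentration. At the GI50, growth is halved. At the TGI there is no net growth.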",
  "data": [
    {"test_system": "MOLT-4 leukemia", "assay": "DTP human tumour cell line panel, 48 h", "units": {"TGI": "µM", "GI50": "µM"}, "values": [
      {"smiles": "N#CC(C(=O)CCCC(=O)Nc1ccc(Cl)cc1Cl)c1ccc(Cl)cc1", "note": "(stereo not given)", "TGI": "> 100"},
      {"smiles": "O=CCCCC(Sc1ccccc1)Sc1ccccc1", "TGI": 38.9},
      {"smiles": "COc1ccc(C)cc1C1CCC(=O)O1", "note": "(stereo not given)", "TGI": "> 100"},
      {"smiles": "Cc1ccc2nc(NC(=O)C(=O)CC(=O)c3cccc4ccccc34)sc2c1", "TGI": "> 100"},
      {"smiles": "Nc1c(C(=O)Nc2cccc3ccccc23)sc2nc3c(cc12)C(=O)CCC3", "GI50": 0.659, "TGI": "> 100"},
      {"smiles": "O=C1CCC(=O)c2sccc2N1", "TGI": "> 100"},
      {"smiles": "O=C(c1ccc2ccccc2c1)c1c(C(F)(F)F)n([O-])c2ccc(F)cc2[n+]1=O", "GI50": 0.393, "TGI": 1.97},
      {"smiles": "CC(C(N)=O)N(C)C(=O)c1cnc2ccccc2c1", "note": "(stereo not given)", "TGI": "> 100"},
      {"smiles": "CCCCCCCCCCCCCCCCCC(=O)NCC(COP(=O)(O)O)OCC", "note": "(stereo not given)", "TGI": "> 100"},
      {"smiles": "CCCOC(=O)C1C2CCC(O2)C1C(=O)O", "note": "(stereo not given)", "TGI": "> 100"},
      {"smiles": "COc1ccc2c(c1)/C(=N/OC(C)=O)c1c-2cnc2ccccc12", "GI50": 20, "TGI": 92.2},
      {"smiles": "Cn1nc(-c2ccccc2)c(C(=O)/C=C/c2ccc(Cl)cc2)c(N2CCCC2)c1=O", "TGI": 6.66},
      {"smiles": "CCOC(=O)c1c(C)n(Cc2ccccc2)c2c1cc1oc(=O)c(=O)n3cnc2c13", "GI50": 8.47, "TGI": "> 50"},
      {"smiles": "C/C(CC(=O)Nc1cccc([N+](=O)[O-])c1)=N\\NC(=O)CC#N", "TGI": "> 100"},
      {"smiles": "[CH3][Sn]1([CH3])[O]CC(COc2cc(Cl)c(Cl)cc2Cl)[O]1", "note": "(stereo not given)", "GI50": "> 100", "TGI": "> 100"},
      {"smiles": "O=C(/C=C/c1ccccc1)CCC1C(=O)NC(=S)NC1=O", "TGI": "> 100"},
      {"smiles": "CCc1cc(Cc2ccc(C)c(NC(=O)C(=O)C3C(=O)NC(=O)NC3=O)c2CC)cc(C)c1NC(=O)C(=O)C1C(=O)NC(=O)NC1=O", "TGI": "> 100"},
      {"smiles": "CC(=O)OC(=O)O/C=C\\CCl", "TGI": "> 100"},
      {"smiles": "O=C(Nc1nc2ccccc2s1)c1cc(-c2ccc(F)cc2)n2nc(-c3ccccc3)cc2n1", "GI50": 21, "TGI": 71.7},
      {"smiles": "CC(=O)c1c2c(cc3c1CC1(C3)Cc3cc4c(c(C(=O)O)c3C1)CCC4)CCC2", "note": "(stereo not given)", "TGI": 71.3},
      {"smiles": "C/C(=N/O)c1ccc(Nc2cc(-n3ccnc3)c3ccccc3n2)cc1", "GI50": 2.95, "TGI": 18.5},
      {"smiles": "Cc1ccc(/C=N/NS(=O)(=O)c2ccccc2)c(C)c1", "TGI": "> 100"},
      {"smiles": "C#CCOCn1cnc2ncnc(N)c21", "TGI": "> 100"},
      {"smiles": "Cc1noc(/N=C2\\C=C(Nc3onc(C)c3C)C(=O)c3ccccc32)c1C", "TGI": "> 100"}
    ]},
    {"test_system": "NCI/ADR-RES ovarian", "assay": "DTP human tumour cell line panel, 48 h", "units": {"TGI": "µM", "GI50": "µM"}, "values": [
      {"smiles": "CC1=C(N2CC2)C(=O)c2ccccc2C1=O", "TGI": 3.14},
      {"smiles": "CC(N1CCOCC1)C(O)(c1ccccc1)c1ccccn1", "note": "(stereo not given)", "TGI": "> 100"},
      {"smiles": "O=C(O)CCc1nc(-c2ccccc2-n2cccc2)no1", "TGI": "> 100"},
      {"smiles": "Cc1cc(Nc2nc(-c3ccncc3)nc3ccccc23)n[nH]1", "GI50": 11.1, "TGI": "> 100"},
      {"smiles": "COc1cc2c(cc1OCCCOc1ccc(-c3nc4ccc(N5CCN(C)CC5)cc4[nH]3)cc1)N=C[C@@H]1CCCN1C2=O", "GI50": "< 0.017", "TGI": 0.161},
      {"smiles": "Nc1c(C(=O)Nc2cccc3ccccc23)sc2nc3c(cc12)C(=O)CCC3", "GI50": 0.225},
      {"smiles": "O=C(c1ccc2ccccc2c1)c1c(C(F)(F)F)n([O-])c2ccc(F)cc2[n+]1=O", "GI50": 2.1, "TGI": 4.57},
      {"smiles": "COc1cccc2c1cc1c3c(cc4c(c32)OCO4)C(=O)N1", "GI50": 2.71, "TGI": 7.46},
      {"smiles": "CC(C(N)=O)N(C)C(=O)c1cnc2ccccc2c1", "note": "(stereo not given)", "TGI": "> 100"},
      {"smiles": "CCCOC(=O)C1C2CCC(O2)C1C(=O)O", "note": "(stereo not given)", "TGI": "> 100"},
      {"smiles": "COc1ccc2c(c1)/C(=N/OC(C)=O)c1c-2cnc2ccccc12", "GI50": 36.9, "TGI": "> 100"},
      {"smiles": "CCCCCCCCCCSC(=N)N", "GI50": 4.8, "TGI": 22.3},
      {"smiles": "CCOC(=O)c1c(C)n(Cc2ccccc2)c2c1cc1oc(=O)c(=O)n3cnc2c13", "GI50": 18.5, "TGI": "> 50"},
      {"smiles": "O=C(/C=C/c1ccccc1)CCC1C(=O)NC(=S)NC1=O", "TGI": "> 100"},
      {"smiles": "C/C(=N/O)c1ccc(Nc2cc(-n3ccnc3)c3ccccc3n2)cc1", "GI50": 42.9, "TGI": "> 100"}
    ]},
    {"test_system": "NCI-H23 lung", "assay": "DTP human tumour cell line panel, 48 h", "units": {"TGI": "µM", "GI50": "µM"}, "values": [
      {"smiles": "CC(N1CCOCC1)C(O)(c1ccccc1)c1ccccn1", "note": "(stereo not given)", "TGI": "> 100"},
      {"smiles": "O=S1(=O)c2ccccc2N=C(c2ccccc2Cl)CC1c1ccc(F)cc1", "note": "(stereo not given)", "TGI": 32.2},
      {"smiles": "CC1=CC(=O)NP(=O)(C23CC4CC(CC(C4)C2)C3)N1", "note": "(stereo not given)", "TGI": "> 100"},
      {"smiles": "O=c1[nH]cc(C(F)(C(F)(F)F)C(F)(F)F)c(=O)[nH]1", "TGI": "> 100"},
      {"smiles": "COc1ccc2c(c1)c1c3n2CCNN=C3CCC1", "TGI": "> 100"},
      {"smiles": "CC(=O)[C-](C(C)=O)c1ccccc1.CC(=O)[C-](C(C)=O)c1ccccc1.CC(=O)[C-](C(C)=O)c1ccccc1.[Cl-].[Zr+4]", "GI50": "> 100", "TGI": "> 100"},
      {"smiles": "CC(C)N1C(C)[C@@H](c2ccccc2)O[P@]1(=O)CC1=CCCCC1", "note": "(stereo not given in full)", "TGI": "> 100"},
      {"smiles": "O=C(O)CCc1nc(-c2ccccc2-n2cccc2)no1", "TGI": "> 100"},
      {"smiles": "COC(=O)C(=O)C(C(=O)C(=O)Nc1cc(Cl)c(Cl)cc1Cl)c1nc2ccc([N+](=O)[O-])cc2[nH]c1=O", "note": "(stereo not given)", "TGI": "> 100"},
      {"smiles": "COc1ccc(NC(=O)C2C(=O)N(c3ccc(OC)cc3)C(=O)/C2=N\\NC(N)=O)cc1", "note": "(stereo not given)", "TGI": "> 100"},
      {"smiles": "C/C(=N\\NS(=O)(=O)c1ccc([N+](=O)[O-])cc1)c1ccc[n+]([O-])n1", "TGI": 3.6},
      {"smiles": "S=c1c2ccccc2c(=S)n2n1CC=CC2", "TGI": "> 100"},
      {"smiles": "CC(C)(C)Sc1nnc(SC(C)(C)C)c2c(=O)[nH]nc(SC(C)(C)C)c12", "TGI": 22.9},
      {"smiles": "COc1cc2c(cc1OCCCOc1ccc(-c3nc4ccc(N5CCN(C)CC5)cc4[nH]3)cc1)N=C[C@@H]1CCCN1C2=O", "GI50": "< 0.01", "TGI": "< 0.01"},
      {"smiles": "CCCCNC1=C(C(=O)OCC)/C(=N/NC(=O)c2ccccc2O)CO1", "TGI": "> 100"},
      {"smiles": "N#CC(C(=O)CCCC(=O)Nc1ccc(Cl)cc1Cl)c1ccc(Cl)cc1", "note": "(stereo not given)", "TGI": "> 100"},
      {"smiles": "O=CCCCC(Sc1ccccc1)Sc1ccccc1", "TGI": 27.3},
      {"smiles": "COc1ccc(C)cc1C1CCC(=O)O1", "note": "(stereo not given)", "TGI": "> 100"},
      {"smiles": "Cc1ccc2nc(NC(=O)C(=O)CC(=O)c3cccc4ccccc34)sc2c1", "TGI": "> 100"},
      {"smiles": "Nc1c(C(=O)Nc2cccc3ccccc23)sc2nc3c(cc12)C(=O)CCC3", "GI50": 0.315, "TGI": "> 42.2"},
      {"smiles": "O=C1CCC(=O)c2sccc2N1", "TGI": "> 100"},
      {"smiles": "O=C(c1ccc2ccccc2c1)c1c(C(F)(F)F)n([O-])c2ccc(F)cc2[n+]1=O", "GI50": 0.574, "TGI": 1.91},
      {"smiles": "COc1cccc2c1cc1c3c(cc4c(c32)OCO4)C(=O)N1", "GI50": 3.45, "TGI": 13.4},
      {"smiles": "CCCCCCCCCCCCCCCCCC(=O)NCC(COP(=O)(O)O)OCC", "note": "(stereo not given)", "TGI": 30.1},
      {"smiles": "CCCOC(=O)C1C2CCC(O2)C1C(=O)O", "note": "(stereo not given)", "TGI": "> 100"},
      {"smiles": "COc1ccc2c(c1)/C(=N/OC(C)=O)c1c-2cnc2ccccc12", "GI50": 46.6, "TGI": "> 100"},
      {"smiles": "CCCCCCCCCCSC(=N)N", "GI50": 6.38, "TGI": 21.3},
      {"smiles": "Cn1nc(-c2ccccc2)c(C(=O)/C=C/c2ccc(Cl)cc2)c(N2CCCC2)c1=O", "TGI": 10.6},
      {"smiles": "CCOC(=O)c1c(C)n(Cc2ccccc2)c2c1cc1oc(=O)c(=O)n3cnc2c13", "GI50": 14.4, "TGI": "> 50"},
      {"smiles": "O=C1C=Cc2ncccc2C1=O", "TGI": 39.6},
      {"smiles": "C/C(CC(=O)Nc1cccc([N+](=O)[O-])c1)=N\\NC(=O)CC#N", "TGI": "> 100"},
      {"smiles": "[CH3][Sn]1([CH3])[O]CC(COc2cc(Cl)c(Cl)cc2Cl)[O]1", "note": "(stereo not given)", "GI50": "> 100", "TGI": "> 100"},
      {"smiles": "O=C(/C=C/c1ccccc1)CCC1C(=O)NC(=S)NC1=O", "TGI": "> 100"},
      {"smiles": "CCc1cc(Cc2ccc(C)c(NC(=O)C(=O)C3C(=O)NC(=O)NC3=O)c2CC)cc(C)c1NC(=O)C(=O)C1C(=O)NC(=O)NC1=O", "TGI": "> 100"},
      {"smiles": "O=C(Nc1nc2ccccc2s1)c1cc(-c2ccc(F)cc2)n2nc(-c3ccccc3)cc2n1", "GI50": 2.81, "TGI": "> 100"},
      {"smiles": "CC(=O)c1c2c(cc3c1CC1(C3)Cc3cc4c(c(C(=O)O)c3C1)CCC4)CCC2", "note": "(stereo not given)", "TGI": 66.8},
      {"smiles": "C/C(=N/O)c1ccc(Nc2cc(-n3ccnc3)c3ccccc3n2)cc1", "GI50": 42, "TGI": "> 100"},
      {"smiles": "Cc1ccc(/C=N/NS(=O)(=O)c2ccccc2)c(C)c1", "TGI": "> 100"},
      {"smiles": "C#CCOCn1cnc2ncnc(N)c21", "TGI": "> 100"},
      {"smiles": "Cc1noc(/N=C2\\C=C(Nc3onc(C)c3C)C(=O)c3ccccc32)c1C", "TGI": "> 100"}
    ]}
  ]
}
